# Measured values from US20250034216A1, “STEREOSELECTIVE COVALENT LIGANDS FOR ONCOGENIC AND IMMUNOLOGICAL PROTEINS” (The Scripps Research Institute, priority 2021, published 2025).
# How the values were obtained:
# Assay in all cases: IA-DTB cysteine engagement
# Type in all cases: binding
# Conditions in all cases: 22Rv1 cells, 20 μM probe, 1 h, relative to DMSO
# [1] = biological target: T1, ANGEL1_C27 (Homo sapiens, UniProt Q9UNK9)
# T1 construct: endogenous in cells; host or cells: 22Rv1
# T1 sequence (Q9UNK9 1-670): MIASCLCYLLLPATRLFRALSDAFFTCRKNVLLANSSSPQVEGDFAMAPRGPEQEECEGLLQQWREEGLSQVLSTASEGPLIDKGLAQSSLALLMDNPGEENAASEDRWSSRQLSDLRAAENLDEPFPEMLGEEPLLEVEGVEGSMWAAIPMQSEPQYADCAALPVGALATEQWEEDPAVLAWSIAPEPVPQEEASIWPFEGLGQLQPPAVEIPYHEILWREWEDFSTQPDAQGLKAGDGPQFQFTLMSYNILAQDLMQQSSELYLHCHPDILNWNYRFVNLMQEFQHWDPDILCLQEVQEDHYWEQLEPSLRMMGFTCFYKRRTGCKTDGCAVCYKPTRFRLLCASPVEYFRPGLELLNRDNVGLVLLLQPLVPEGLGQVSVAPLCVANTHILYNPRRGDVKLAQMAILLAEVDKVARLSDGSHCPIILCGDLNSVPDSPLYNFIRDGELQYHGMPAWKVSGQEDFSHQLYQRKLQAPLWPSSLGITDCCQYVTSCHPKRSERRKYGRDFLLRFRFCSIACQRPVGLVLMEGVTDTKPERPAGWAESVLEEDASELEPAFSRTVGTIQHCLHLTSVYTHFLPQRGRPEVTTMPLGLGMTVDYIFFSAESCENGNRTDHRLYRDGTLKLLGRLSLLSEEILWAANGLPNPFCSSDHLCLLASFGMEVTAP
# Outline: (§1)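 In-situ probe treatment of cells; lysate 2 mg/mL, IA-DTB 1 h RT; MeOH/CHCl3 precipitation, DTT/iodoacetamide, trypsin; streptavidin enrichment; TMT labeling, high-pH fractionation. Ratio = TMT reporter intensity / mean DMSO channels, median-normalized.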
# [2] = biological target: T2, RAB39B_C23 (Homo sapiens, UniProt Q96DA2)
# T2 construct: endogenous in cells; host or cells: 22Rv1
# T2 sequence (Q96DA2 1-213): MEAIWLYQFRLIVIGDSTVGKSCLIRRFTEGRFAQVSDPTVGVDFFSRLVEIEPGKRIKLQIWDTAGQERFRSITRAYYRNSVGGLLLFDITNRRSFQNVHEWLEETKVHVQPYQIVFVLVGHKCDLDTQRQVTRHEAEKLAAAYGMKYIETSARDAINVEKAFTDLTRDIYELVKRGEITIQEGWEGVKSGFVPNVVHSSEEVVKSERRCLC
# Outline: as §1
# [3] = biological target: T3, TBC1D13_C282 (Homo sapiens, UniProt Q9NVG8)
# T3 construct: endogenous in cells; host or cells: 22Rv1
# T3 sequence (Q9NVG8 1-400): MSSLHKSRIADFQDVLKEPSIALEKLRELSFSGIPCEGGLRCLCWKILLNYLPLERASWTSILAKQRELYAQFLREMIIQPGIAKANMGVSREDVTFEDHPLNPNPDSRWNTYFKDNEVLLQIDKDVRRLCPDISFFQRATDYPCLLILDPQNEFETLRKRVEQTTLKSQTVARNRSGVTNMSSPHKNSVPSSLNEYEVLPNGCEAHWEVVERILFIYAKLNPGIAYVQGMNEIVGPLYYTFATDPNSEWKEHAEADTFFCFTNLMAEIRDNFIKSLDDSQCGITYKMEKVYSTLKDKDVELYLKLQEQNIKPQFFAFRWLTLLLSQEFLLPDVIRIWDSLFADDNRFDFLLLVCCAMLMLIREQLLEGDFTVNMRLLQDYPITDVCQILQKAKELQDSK
# Outline: as §1
% engagement ANGEL1_C27 [1] [%],% engagement RAB39B_C23 [2] [%],% engagement TBC1D13_C282 [3] [%],SMILES
54.5,67,51.5,"C=CC(=O)N1C[C@H](c2ccc(Br)cc2)[C@H]1C(=O)Nc1cccc2cccnc12 [MY-3B, (2S,3S)-1-acryloyl-3-(4-bromophenyl)-N-(quinolin-8-yl)azetidine-2-carboxamide]"
66.5,18.5,1,"C=CC(=O)N1C[C@H](c2ccc(Br)cc2)[C@@H]1C(=O)Nc1cccc2cccnc12 [MY-1B, (2R,3S)-1-acryloyl-3-(4-bromophenyl)-N-(quinolin-8-yl)azetidine-2-carboxamide]"
45.5,−53,−16,"C=CC(=O)N1C[C@H](c2ccc(Br)cc2)[C@H]1C(=O)Nc1cccc2cccnc12 [MY-3A, (2S,3S)-1-acryloyl-3-(4-bromophenyl)-N-(quinolin-8-yl)azetidine-2-carboxamide]"
63,24.5,75.75,"C=CC(=O)N1C[C@@H](c2ccc(Br)cc2)[C@H]1C(=O)Nc1cccc2cccnc12 [MY-1A, (2S,3R)-1-acryloyl-3-(4-bromophenyl)-N-(quinolin-8-yl)azetidine-2-carboxamide]"
